Results from patent US20060148725A1, “Selective 11beta HSD inhibitors and methods of use thereof” (The Miriam Hospital, priority 2001, published 2006).

Columns and labels:
11β-HSD1 [1] = assay: RT-PCR analysis of 11β-HSD1 expression in cultured vascular cells; format: cell-based; conditions: cultured rat vascular endothelial and smooth muscle cells
Excerpt: (§1) Since 11β-HSD2 appears to exist only in endothelial cells, this observation supports a role for the action of glucocorticoids in affecting endothelial cell function. […] Further experiments to determine whether antisense oligomers down-regulate mRNA and protein expression of their respective 11β-HSD isoform under conditions in which they enhance contractile responses in aortic rings will be done.

11β-HSD1 [2] = assay: Conversion of 3H-corticosterone to 11-dehydrocorticosterone by aortic rings, 11β-HSD1 antisense; format: cell-based, rat; conditions: 3H-corticosterone 10 nM, antisense 3 μM, 24 hrs
Protocol: (§2) The effects of 11β-HSD1 and 11β-HSD2 antisense on the inter-conversion of ^3H-corticosterone and ^3H-11-dehydro-corticosterone by aortic rings was also determined. Rings (2-3 mm) obtained in a similar manner as those in the contraction studies, were incubated in 1 ml DMEM/F12 media containing 1% FBS at 37° C. under 95% O2-5% CO2 in 24-well culture plates. Rings were incubated for 24 hours with: • (i) ^3H-corticosterone (10 nmol/L)±11β-HSD2 or 11β-HSD1 antisense (3 μmol/L); control groups received nonsense oligomers. The amount of ^3H-11-dehydro-corticqsterone in the incubation medium after 24 hrs was then measured. The effects of 11β-HSD1 antisense/nonsense were measured in quadruplicate (n=6 aortic rings per well) and the effects of 11β-HSD2 antisense/nonsense in duplicate (n=8 aortic rings per well), • (ii) ^3H-11-dehydro-corticosterone (10 nmol/L)±11β-HSD1 antisense (3 μmol/L); this experiment was performed in duplicate (n=10 aortic rings per well). Control groups were incubated with the appropriate nonsense oligomer. ^3H-corticosterone in the incubation medium after 24 hrs was then measured. In this experiment, aortic rings were also analyzed for ^3H-corticosterone content. Rings from duplicate incubations (total n=20) were blotted dry, pooled and homogenized in 50 % methanol using a Polytron. […]

rat aortic rings = assay: Contractile response of rat aortic rings to phenylephrine; format: cell-based; conditions: rings incubated 24 hours with corticosterone 10 nmol/L and antisense 3 μmol/L; graded phenylephrine
Protocol: Male Sprague-Dawley (1 50-200 g) rats were anesthetized with pentobarbital (50 mg/kg IP), and a median sternotomy was performed followed by the rapid removal of the thoracic aorta. The adventitia was removed, but the endothelium was left intact. The aorta was cut into 2-3 mm rings and individual rings were placed into a single well of a twenty four well culture plate and incubated at 37° C. under 95% O2-5% CO2. Each well contained 1 mL of DMEM/F12 containing 1% fetal bovine serum, streptomycin (100 μg/ml), penicillin (100 units/ml) and amphotericin (0.25 μg/ml). […]
For contraction measurements, aortic rings were suspended by tungsten wires with 1 g of tension and placed in a vessel bath containing serum free DMEM/F12 media at 37° C. aerated with 95% O2-5% CO2, at pH 7.4. […] The intensity of contraction was assessed by use of a Narishige micromanipulator and model FT03 force transducer (Grass Instrument Co. West Warwick, R.I.). Measurements were recorded on computer using the Labview 4.1 Virtual Instrument System (National Instruments, Austin, Tex.).

11β-HSD1 Reductase = 11β-HSD1 Reductase (Rattus norvegicus, UniProt P16232); assay: Metabolism of 3H-11-dehydrocorticosterone back to corticosterone by aortic rings; format: cell-based; parameters: from tissue; host or cells: rat (Sprague-Dawley) thoracic aortic rings, endothelium intact; conditions: 24 hours
Protocol: as §2

11β-HSD2 [3] = assay: Conversion of 3H-corticosterone to 11-dehydrocorticosterone by aortic rings, 11β-HSD2 antisense; format: cell-based, rat; conditions: antisense 3 μM, 24 hrs
Protocol: as §2

11β-HSD2 [4] = assay: RT-PCR analysis of 11β-HSD2 expression in cultured vascular cells; format: cell-based; conditions: cultured rat vascular endothelial and smooth muscle cells
Excerpt: as §1

11β-HSD1 Reductase, sequence (P16232 whole entry): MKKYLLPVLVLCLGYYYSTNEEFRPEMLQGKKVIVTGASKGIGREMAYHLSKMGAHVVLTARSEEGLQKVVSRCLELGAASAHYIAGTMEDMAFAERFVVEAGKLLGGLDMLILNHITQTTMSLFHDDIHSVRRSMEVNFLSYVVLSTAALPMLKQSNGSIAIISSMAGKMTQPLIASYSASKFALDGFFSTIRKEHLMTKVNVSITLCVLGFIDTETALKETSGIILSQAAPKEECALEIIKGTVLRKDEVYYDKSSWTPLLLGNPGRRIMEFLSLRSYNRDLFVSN

Row | Substance | expression of 11β-HSD1 isoform by RT-PCR (11β-HSD1 [1]) | conversion of corticosterone to 11-dehydrocorticosterone, lower than with 11β-HSD1 nonsense oligomers (11β-HSD1 [2]) | contractile response to phenylephrine compared to corticosterone plus nonsense oligomers (rat aortic rings) | production of 3H-corticosterone from 3H-11-dehydrocorticosterone, incubation media, compared to nonsense oligomers (11β-HSD1 Reductase; incubation media) | production of 3H-corticosterone from 3H-11-dehydrocorticosterone, aortic ring tissue, compared to nonsense oligomers (11β-HSD1 Reductase; pooled aortic ring tissue) | reduction in the conversion of corticosterone to 11-dehydrocorticosterone compared to 11β-HSD2 nonsense (11β-HSD2 [3]) | expression of 11β-HSD2 isoform by RT-PCR (11β-HSD2 [4])
1 | 11β-HSD1 antisense: Antisense phosphorothioate oligonucleotide blocking 11β-HSD1 gene expression, 5′-CATAACTGCCGTCCAACAGC-3′ (antisense CATAACTGCCGTCCAACAGC; all phosphorothioate, sugars by position and methylation of C not given here) | down-regulate | 21% | significantly increased | markedly reduced | markedly lower | – | –
2 | 11β-HSD2 antisense: Antisense phosphorothioate oligonucleotide blocking 11β-HSD2 gene expression, 5′-AGGCCAGCGCTCCATGACTT-3′ (antisense AGGCCAGCGCTCCATGACTT; all phosphorothioate, sugars by position and methylation of C not given here) | – | – | statistically significant increase | – | – | 24% | down-regulate
